Measured values from patent publication US6184333A, “Low-toxicity, high-temperature polyimides” (Maverick Corporation, priority 1999, dated 2001).

Columns and labels:
[1] = cited from earlier work; for Carcinogenicity: animals, where stated; for Toxicity: in vivo
[2] = with and without metabolic activation; cited from earlier work
Solubility in methanol = assay type: physicochemical
Source text: A matrix of polyirnide copolymers was synthesized by using Bisaniline-P, Bisaniline-M, and paraphenylenediamine (PPDA). Partial molar substitutions of PPDA (up to 50 mole percent) were used in order to increase glass transition temperatuer and/or thermal oxidative stability. Pre-polymer molecular weight was also adjusted to favorably impact processing parameters as well as the final Tg. Each copolymer was formulated at a molar ratio of 2 NE: 2 BTDE: 3 Diamine. All of the resin systems were synthesized using standard techniques known in the industry. In some of the BIS-P formulations, n-methylpyrrilidinone (NMP) was used as a solvent in addition to methanol. This was done in order to maintain the solubility of the fairly large molecular-weight BIS-P diamine. […] A detailed description of the low-toxicity polyimnide systems that were developed is shown below in Table IV.

rat [3] = conditions: cited from earlier work
rabbit skin = conditions: cited from earlier work
rat [4] = experiment: Acute oral LD50; assay type: in vivo; conditions: vs. MDA
Source text: Except for BAX, the advantages of these diamines include low cost (<$50/pound) as well as low toxicity. […] (ADD IN FNOTE 19) Table I compares the toxicological data of MDA vs. That of Bisaninine-P and Bisaniline-M. In addition, the Ames Mutagenicity Assays for Bisaniline-P and Bisaniline-M were negative with and without metabolic activation. (ID)

rat [5] = conditions: cited from earlier work; remark: listed apart in the source

## CC(C)(c1ccc(Oc2ccc(N)cc2)cc1)c1ccc(Oc2ccc(N)cc2)cc1 [BAPP, 2,2-bis(4-[4-aminophenoxyl]phenyl) propane]
[1]
  Carcinogenicity: non-carcinogenic
  Toxicity: non-toxic

## CC(C)(c1ccc(N)cc1)c1cccc(C(C)(C)c2ccc(N)cc2)c1 [BIS-M, 4,4'-(1,3-phenylene-bis(1-methylethylidene))bisaniline]
[2]
  Ames Mutagenicity Assay: negative
Solubility in methanol
  Solubility in methanol: readily soluble
Rat [3]
  Acute Oral LD50: 6,240 mg/kg
Rabbit skin
  Skin irritation (printed in the Acute Dermal LD50 line): Non-irritating
Rat [4]
  Acute oral LD50 compared with that of MDA: more than ten times higher

## CC(C)(c1ccc(N)cc1)c1ccc(C(C)(C)c2ccc(N)cc2)cc1 [BIS-P, 4,4'-(1,4-phenylene-bis(1-methylethylidene))bisaniline]
[2]
  Ames Mutagenicity Assay: negative
Rat [5]
  Acute Dermal LD50: > 2,000 mg/kg
Rat [3]
  Acute Oral LD50: > 5,000 mg/kg
Rat [4]
  Acute oral LD50 compared with that of MDA: more than ten times higher

## Nc1ccc(Cc2ccc(N)cc2)cc1 [MDA, 4,4'-methylenedianiline, reference compound]
Rat [5]
  Acute Dermal LD50: 200 mg/kg
[1]
  Carcinogenicity: known animal carcinogen
  Toxicity: known kidney and liver toxin
[1]; human
  Human carcinogenicity: suspected human carcinogen
Rat [3]
  Acute Oral LD50: 347 mg/kg

## Nc1ccc(N)cc1 [PPDA, para-phenylenediamine]
[1]
  Carcinogenicity: no carcinogenic activity in animals
